Reference: PubChem BioAssay AID248 (DTP/NCI, 2004)
Several values for one entry are separate records, joined by “and”; a condition that tells them apart may be missing. Equal values may be shown once. Toxic doses and inconclusive results are not listed. No stated cut-off is given here; in the data, active means T/C of 150% or more; inactive means T/C below 125%.

System: L1210 leukemia ip in BDF1 mice, survival T/C
Assay: NCI In Vivo Anticancer Drug Screen. Data for tumor model L1210 Leukemia (intraperitoneal) in B6D2F1 (BDF1) mice
Conditions: higher = longer survival
Summary of the method: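 Each compound was tested against a transplantable tumor grown in mice. The endpoint was survival, with treated animals benchmarked against vehicle controls as a simple ratio.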

[1] = endpoint: mean survival time, dose: 50.0 mg/kg/injection, schedule: Q01DX009 (ip), vehicle: saline with Tween-80
[2] = endpoint: mean survival time, dose: 100.0 mg/kg/injection, schedule: Q01DX009 (ip), vehicle: saline with Tween-80
[3] = endpoint: mean survival time, dose: 50.0 mg/kg/injection, schedule: Q01DX001 (ip), vehicle: saline
[4] = endpoint: mean survival time, dose: 100.0 mg/kg/injection, schedule: Q01DX001 (ip), vehicle: saline
[5] = endpoint: mean survival time, dose: 200.0 mg/kg/injection, schedule: Q01DX001 (ip), vehicle: saline
[6] = endpoint: mean survival time, dose: 200.0 mg/kg/injection, schedule: Q01DX009 (ip), vehicle: saline with Tween-80
[7] = endpoint: mean survival time, dose: 100.0 mg/kg/injection, schedule: Q01DX009 (ip), vehicle: Klucel (hydroxypropylcellulose) (HPC)
[8] = endpoint: mean survival time, dose: 100.0 mg/kg/injection, schedule: Q01DX001 (ip), vehicle: carboxymethylcellulose (CMC)
[9] = endpoint: mean survival time, dose: 200.0 mg/kg/injection, schedule: Q01DX001 (ip), vehicle: carboxymethylcellulose (CMC)
[10] = endpoint: mean survival time, dose: 400.0 mg/kg/injection, schedule: Q01DX001 (ip), vehicle: carboxymethylcellulose (CMC)

Measured: T/C

C1CC2CCC1CNC2
inactive: endpoint: mean survival time, dose: 50.0 mg/kg/injection, schedule: Q04DX003 (ip), vehicle: saline 104 % of control | endpoint: mean survival time, dose: 100.0 mg/kg/injection, schedule: Q04DX003 (ip), vehicle: saline 106 % of control

CN(C)/N=N/c1nc[nH]c1C(=O)N/N=C/c1ccc(N(CCCl)CCCl)cc1
inactive: endpoint: mean survival time, dose: 100.0 mg/kg/injection, schedule: Q01DX001 (ip), vehicle: other 100 % of control | endpoint: mean survival time, dose: 200.0 mg/kg/injection, schedule: Q01DX001 (ip), vehicle: other 104 % of control | endpoint: mean survival time, dose: 400.0 mg/kg/injection, schedule: Q01DX001 (ip), vehicle: other 98 % of control

CN(C)CCCNC(=S)Nc1ccc(Cl)cc1
inactive: [1] 108 % of control | [2] 108 % of control

CCOC(=O)COc1cc(Cl)ccn1
inactive: endpoint: mean survival time, dose: 100.0 mg/kg/injection, schedule: Q04DX002 (ip), vehicle: Klucel (hydroxypropylcellulose) (HPC) 110 % of control | endpoint: mean survival time, dose: 200.0 mg/kg/injection, schedule: Q04DX002 (ip), vehicle: Klucel (hydroxypropylcellulose) (HPC) 104 % of control | endpoint: mean survival time, dose: 400.0 mg/kg/injection, schedule: Q04DX002 (ip), vehicle: Klucel (hydroxypropylcellulose) (HPC) 104 % of control

O=C(CCCC(=O)NNC(=S)NC1CCCCC1)NNC(=S)NC1CCCCC1
inactive: [3] 96 % of control | [4] 96 % of control | [5] 93 % of control

CCOC(=O)c1cn2ccc3ccccc3c2n1
inactive: endpoint: mean survival time, dose: 100.0 mg/kg/injection, schedule: Q01DX001 (ip), vehicle: Klucel (hydroxypropylcellulose) (HPC) 103 % of control | endpoint: mean survival time, dose: 200.0 mg/kg/injection, schedule: Q01DX001 (ip), vehicle: Klucel (hydroxypropylcellulose) (HPC) 98 % of control | endpoint: mean survival time, dose: 400.0 mg/kg/injection, schedule: Q01DX001 (ip), vehicle: Klucel (hydroxypropylcellulose) (HPC) 98 % of control

CC(=O)OC(c1ccccc1)c1ccccn1 (stereo not drawn)
inactive: [1] 105 % of control | [2] 98 % of control | [6] 94 % of control

O=C(c1ccc2cc(Cl)c3ccccc3c2c1)C(Br)CBr (stereo not drawn)
inactive: endpoint: mean survival time, dose: 55.0 mg/kg/injection, schedule: Q01DX Z (ip), vehicle: methylcellulose (MC) 88 % of control | endpoint: mean survival time, dose: 83.0 mg/kg/injection, schedule: Q01DX Z (ip), vehicle: methylcellulose (MC) 93 % of control | endpoint: mean survival time, dose: 125.0 mg/kg/injection, schedule: Q01DX Z (ip), vehicle: methylcellulose (MC) 93 % of control

CC1OC(OC2CC(O)C3(CO)C4C(O)CC5(C)C(C6=CC(=O)OC6)CCC5(O)C4CCC3(O)C2)C(O)C(O)C1O (stereo not drawn)
inactive: endpoint: mean survival time, dose: 0.5 mg/kg/injection, schedule: Q01DX009 (ip), vehicle: saline 100 % of control | endpoint: mean survival time, dose: 1.0 mg/kg/injection, schedule: Q01DX009 (ip), vehicle: saline 121 % of control | endpoint: mean survival time, dose: 1.25 mg/kg/injection, schedule: Q01DX001 (ip), vehicle: saline 100 % of control | endpoint: mean survival time, dose: 2.0 mg/kg/injection, schedule: Q01DX009 (ip), vehicle: saline 113 % of control | endpoint: mean survival time, dose: 2.5 mg/kg/injection, schedule: Q01DX001 (ip), vehicle: saline 104 % of control | endpoint: mean survival time, dose: 4.0 mg/kg/injection, schedule: Q01DX009 (ip), vehicle: saline 106 % of control | endpoint: mean survival time, dose: 5.0 mg/kg/injection, schedule: Q01DX001 (ip), vehicle: saline 101 % of control | endpoint: mean survival time, dose: 6.25 mg/kg/injection, schedule: Q01DX001 (ip), vehicle: saline 105 % of control | endpoint: mean survival time, dose: 12.5 mg/kg/injection, schedule: Q01DX001 (ip), vehicle: saline 106 % of control | endpoint: median survival time, dose: 1.0 mg/kg/injection, schedule: Q01DX005 (ip), vehicle: water 105 % of control | endpoint: median survival time, dose: 2.0 mg/kg/injection, schedule: Q01DX005 (ip), vehicle: water 104 % of control | endpoint: median survival time, dose: 4.0 mg/kg/injection, schedule: Q01DX005 (ip), vehicle: water 109 % of control

CC1CN=C(c2c(O)ccc3ccccc23)S1 (stereo not drawn)
inactive: endpoint: mean survival time, dose: 100.0 mg/kg/injection, schedule: Q04DX002 (ip), vehicle: gum acacia 96 % of control | endpoint: mean survival time, dose: 200.0 mg/kg/injection, schedule: Q04DX002 (ip), vehicle: gum acacia 93 % of control | endpoint: mean survival time, dose: 400.0 mg/kg/injection, schedule: Q04DX002 (ip), vehicle: gum acacia 90 % of control

c1ccc2cc(B(c3cccc4ccccc34)c3cccc4ccccc34)ccc2c1
inactive: endpoint: mean survival time, dose: 12.5 mg/kg/injection, schedule: Q04DX002 (ip), vehicle: saline with Tween-80 102 % of control | endpoint: mean survival time, dose: 25.0 mg/kg/injection, schedule: Q04DX002 (ip), vehicle: saline with Tween-80 94 % of control | endpoint: mean survival time, dose: 50.0 mg/kg/injection, schedule: Q04DX002 (ip), vehicle: saline with Tween-80 105 % of control

O=C(Nc1ccccc1F)NC(CO)(CO)CO
inactive: [7] 97 % of control | endpoint: mean survival time, dose: 200.0 mg/kg/injection, schedule: Q01DX009 (ip), vehicle: Klucel (hydroxypropylcellulose) (HPC) 98 % of control | endpoint: mean survival time, dose: 400.0 mg/kg/injection, schedule: Q01DX009 (ip), vehicle: Klucel (hydroxypropylcellulose) (HPC) 95 % of control

ClCCN1CCC2(CC1)SSC1(CCN(CCCl)CC1)S2
inactive: endpoint: mean survival time, dose: 10.0 mg/kg/injection, schedule: Q01DX009 (ip), vehicle: saline 107 % of control | endpoint: mean survival time, dose: 20.0 mg/kg/injection, schedule: Q01DX001 (ip), vehicle: Klucel (hydroxypropylcellulose) (HPC) 108 % of control | endpoint: mean survival time, dose: 20.0 mg/kg/injection, schedule: Q01DX009 (ip), vehicle: saline 103 % of control | endpoint: mean survival time, dose: 40.0 mg/kg/injection, schedule: Q01DX001 (ip), vehicle: Klucel (hydroxypropylcellulose) (HPC) 121 % of control

CCSC1OC(C(COC(C)=O)OC(C)=O)C(OC(C)=O)C1NC(C)=S (stereo not drawn)
inactive: [3] 97 % of control | [4] 103 % of control | [5] 103 % of control | endpoint: mean survival time, dose: 400.0 mg/kg/injection, schedule: Q01DX001 (ip), vehicle: saline 100 % of control

CC1(C)OCC2SC(n3cnc4c(N)ncnc43)C(O)C2O1 (stereo not drawn)
inactive: endpoint: mean survival time, dose: 25.0 mg/kg/injection, schedule: Q01DX009 (ip), vehicle: saline 94 % of control | endpoint: mean survival time, dose: 33.0 mg/kg/injection, schedule: Q01DX001 (ip), vehicle: carboxymethylcellulose (CMC) 97 % of control | endpoint: mean survival time, dose: 50.0 mg/kg/injection, schedule: Q01DX009 (ip), vehicle: saline 98 % of control | endpoint: mean survival time, dose: 66.5 mg/kg/injection, schedule: Q01DX001 (ip), vehicle: carboxymethylcellulose (CMC) 92 % of control | endpoint: mean survival time, dose: 100.0 mg/kg/injection, schedule: Q01DX005 (ip), vehicle: saline 94 % of control and 97 % of control | endpoint: mean survival time, dose: 100.0 mg/kg/injection, schedule: Q01DX009 (ip), vehicle: saline 98 % of control | endpoint: mean survival time, dose: 133.0 mg/kg/injection, schedule: Q01DX001 (ip), vehicle: carboxymethylcellulose (CMC) 92 % of control | endpoint: mean survival time, dose: 200.0 mg/kg/injection, schedule: Q01DX005 (ip), vehicle: saline 95 % of control

O=C1OC(=O)C2C3C=CC(C3)C12 (stereo not drawn)
inactive: endpoint: mean survival time, dose: 12.5 mg/kg/injection, schedule: Q01DX009 (ip), vehicle: saline with Tween-80 97 % of control | endpoint: mean survival time, dose: 25.0 mg/kg/injection, schedule: Q01DX009 (ip), vehicle: Klucel (hydroxypropylcellulose) (HPC) 100 % of control | endpoint: mean survival time, dose: 25.0 mg/kg/injection, schedule: Q01DX009 (ip), vehicle: saline with Tween-80 100 % of control | endpoint: mean survival time, dose: 50.0 mg/kg/injection, schedule: Q01DX001 (ip), vehicle: carboxymethylcellulose (CMC) 104 % of control | endpoint: mean survival time, dose: 50.0 mg/kg/injection, schedule: Q01DX009 (ip), vehicle: Klucel (hydroxypropylcellulose) (HPC) 96 % of control | [1] 96 % of control | [8] 106 % of control and 96 % of control | [7] 105 % of control and 87 % of control | [2] 90 % of control | endpoint: mean survival time, dose: 100.0 mg/kg/injection, schedule: Q04DX003 (ip), vehicle: Klucel (hydroxypropylcellulose) (HPC) 102 % of control | endpoint: mean survival time, dose: 100.0 mg/kg/injection, schedule: Q04DX003 (ip), vehicle: saline with Tween-80 98 % of control | [9] 104 % of control and 91 % of control | [6] 92 % of control | endpoint: mean survival time, dose: 200.0 mg/kg/injection, schedule: Q04DX003 (ip), vehicle: Klucel (hydroxypropylcellulose) (HPC) 89 % of control | endpoint: mean survival time, dose: 200.0 mg/kg/injection, schedule: Q04DX003 (ip), vehicle: saline with Tween-80 98 % of control | [10] 95 % of control and 96 % of control | endpoint: mean survival time, dose: 400.0 mg/kg/injection, schedule: Q01DX009 (ip), vehicle: saline with Tween-80 88 % of control | endpoint: mean survival time, dose: 400.0 mg/kg/injection, schedule: Q04DX003 (ip), vehicle: saline with Tween-80 97 % of control

NCC(O)C(F)(F)F (stereo not drawn)
inactive: [8] 109 % of control | [9] 97 % of control | [10] 118 % of control

COC(=O)C12C3OC(C4OC43)C1(C(=O)OC)C1OC2C2OC21 (stereo not drawn)
inactive: endpoint: mean survival time, dose: 87.5 mg/kg/injection, schedule: Q01DX009 (ip), vehicle: Klucel (hydroxypropylcellulose) (HPC) 100 % of control | endpoint: mean survival time, dose: 175.0 mg/kg/injection, schedule: Q01DX009 (ip), vehicle: Klucel (hydroxypropylcellulose) (HPC) 101 % of control | endpoint: mean survival time, dose: 350.0 mg/kg/injection, schedule: Q01DX009 (ip), vehicle: Klucel (hydroxypropylcellulose) (HPC) 101 % of control
